According to patent US7217805B2, “Bicyclonucleoside analogues” (Sankyo Company, Limited, priority 1999, dated 2007):
[3'-NH2-LNA] = 3'-amino-3'-deoxy-2'-O,4'-C-methylene-5-methyluridine; d = 2'-deoxy (DNA)

Test system: double stranded DNA with the sequence of 5′-gctaaaaagaaagagagatcg-3′ (SEQ ID NO: 3) and its complementary strand 5′-cgatctctctttctttttagc-3′ (SEQ ID NO: 4)
Assay: Measurement of Tm for determination of activity of triplet formation
Format: binding
Details: 7 mM sodium phosphate buffer pH 7.0, 140 mM KCl, 1.5 μM each nucleotide, UV 260 nm

Row | Substance | Tm (With MgCl2 (10 mM)) [°C] | Tm (Without MgCl2) [°C]
1 | Oligonucleotide (2): 5′-tttttmtntmtmtmt-3′ (SEQ ID NO: 2), m is 5-methyl 2′-deoxycytidine, n is 3′-amino-3′-deoxy-2′-O,4′-C-methylene-5-methyluridine (TTTTTCTTTCTCTCT; sugars from the 5' end d7 [3'-NH2-LNA]1 d7, all C 5-methyl, backbone not given here; triplex-forming oligonucleotide, further chemistry not fully specified) | 55 | 44
2 | Oligonucleotide (3): natural oligonucleotide which forms a triplet, 5′tttttmtttmtmtmt-3′ (SEQ ID NO: 5), m is 5-methyl-2′deoxycytidine (TTTTTNTTTNTNTNT; 5-methyl-2'-deoxycytidine, chemistry not fully specified) | 44 | 32
